In US8758833B2, “Cosmetic composition for the treatment of acne comprising a peptide extract of Schisandra” (Laboratoires Expanscience, priority 2009, dated 2014):

Columns and labels:
[1] = tested on: IL-1α released by keratinocytes; experiment: Assay of IL-1α released by PMA-stimulated keratinocytes (ELISA); type: cell-based
Description: (§1) Keratinocytes were seeded in 24-well plates in KGM2 medium. After 24 hours of incubation, the cells were pretreated with Schisandra peptides for 24 hours. Next, the cells were stimulated by adding […] PMA (phorbol 12-myristate 13-acetate, Sigma) for 24 hours.
(§2) After the treatment, the cell supernatants were collected and IL-1α and VEGF were assayed using ELISA kits (R&D Systems) according to the manufacturer's instructions.
(§3) An MTT (IL-1α) or neutral red (VEGF) test was carried out on the cell layers: OD, proportional to the quantity of living cells, is read at 570 nm (MTT) or 540 nm (red neutral).
(§4) The quantities of IL-1α and VEGF are expressed in pg/ml/OD570 and pg/ml/OD540, respectively.

VEGF in keratinocytes = experiment: Assay of VEGF in PMA-stimulated keratinocytes (ELISA); type: cell-based; details: Positive control (PMA) alone; non-stimulated control 208.166
Description: as §1, §2, §3, §4

Row | SMILES | release of IL-1α induced by stimulation (% vs unstimulated) ([1]; keratinocytes stimulated by PMA for 24 hours) | Average VEGF (VEGF in keratinocytes) [pg/mL] | inhibition at 0.1 µM ([1]; Keratinocyte, pretreatment with 10^−7 M dexamethasone, keratinocytes stimulated by PMA 24 hours, read-out: inhibition of the IL-1α release induced by PMA) [%]
1 | CCCCCCCCCCCCCC(=O)O[C@@H]1[C@@H](C)[C@@]2(O)[C@@H](C=C(CO)C[C@]3(O)C(=O)C(C)=C[C@@H]23)[C@@H]2C(C)(C)[C@]12OC(C)=O [PMA, phorbol 12-myristate 13-acetate] | +123% | 767.941 | 
2 | C[C@@H]1C[C@H]2[C@@H]3CCC4=CC(=O)C=C[C@]4(C)[C@@]3(F)[C@@H](O)C[C@]2(C)[C@@]1(O)C(=O)CO [dexamethasone] |  |  | 100
